Data on 4 molecules can be found in PMC5320564 (Journal of molecular biology, 2011).

Residue numbers refer to the chain shown, from its start. Names may count otherwise.

One may read the stoichiometry N as a count of units in the complex or per binding partner.

Series [1] concerns the target EcPhnD-Q267C:acrylodan. As to conditions: read-out: Phosphonate affinities (Kd); cited from earlier work.
Series [2] deals with EcPhnD-K181C:IANBD (Escherichia coli, UniProt P16682, K207C). Kind of series: biochemical. Format: binding.
EcPhnD-K181C:IANBD, sequence (P16682 27-338 K207C): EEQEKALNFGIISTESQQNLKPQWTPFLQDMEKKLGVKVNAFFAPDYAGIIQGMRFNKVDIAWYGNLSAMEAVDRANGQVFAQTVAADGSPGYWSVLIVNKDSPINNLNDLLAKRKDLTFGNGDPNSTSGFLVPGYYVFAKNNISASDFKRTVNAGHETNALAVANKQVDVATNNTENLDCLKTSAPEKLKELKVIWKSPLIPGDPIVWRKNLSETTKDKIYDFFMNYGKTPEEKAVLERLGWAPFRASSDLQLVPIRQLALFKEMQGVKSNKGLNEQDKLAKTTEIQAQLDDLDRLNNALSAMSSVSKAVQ
The target in series [3] is EcPhnD (Escherichia coli, UniProt P16682). Particulars: read-out: affinity; cited from earlier work.
Series [4] has as its target EcPhnD90-cpGFP.L1ADΔΔ.L297R,L301R (Escherichia coli, UniProt Q1R3F7, L323R/L327R, form not given). Format: binding.
In series [5] the target is EcPhnD-Q17C:IANBD (Escherichia coli, UniProt P16682, Q43C). Format: binding.
EcPhnD-Q17C:IANBD, sequence (P16682 27-338 Q43C): as the sequence (P16682 27-338 K207C) above, with Q17C, C181K counted along it
The test system of series [6] is EcPhnD142-cpGFP. Format: binding, Escherichia coli.
Series [7] deals with EcPhnD87-cpGFP. Format: binding, Escherichia coli.
Series [8] has as its system EcPhnD with cpGFP inserted at position 147. Format: binding, Escherichia coli.
Series [9] concerns the molecule itself. Kind of series: crystal structure.

Consider `O=C(O)CNCP(=O)(O)O` [Glyphosate (GP), Glyphosate], for which the Kd in series [1] is 650000 nM; in series [2] it was 260000 ± 20000 nM.

`NCCP(=O)(O)O` [2AEP, 2-aminoethylphosphonate]: the Kd in series [3] was about 5 nM; in series [4] (read-out: Phosphonate affinities (Kd)), 37000 ± 7000 nM; in series [5] it was 11 ± 5 nM; in series [1], 5 nM; in [2] it was 540 ± 40 nM. The ΔF/F0 increase in series [4] turned out to be 1.6. In addition, the ΔF/F0 in [5] is recorded as 1.2±0.1; in series [2] it was −0.72±0.01. Moreover, the entries for the “affinity for 2AEP by ITC (in words)” value in series [6], in [7] and in [8] were “dramatically decreased affinity”, “high affinity” and “dramatically decreased affinity”, respectively.

B1: Selenomethionine-substituted EcPhnD (natural protein, E. coli, UniProt P16682 27-338, looked up)
chain: EEQEKALNFGIISTESQQNLKPQWTPFLQDMEKKLGVKVNAFFAPDYAGIIQGMRFNKVDIAWYGNLSAMEAVDRANGQVFAQTVAADGSPGYWSVLIVNKDSPINNLNDLLAKRKDLTFGNGDPNSTSGFLVPGYYVFAKNNISASDFKRTVNAGHETNALAVANKQVDVATNNTENLDKLKTSAPEKLKELKVIWKSPLIPGDPIVWRKNLSETTKDKIYDFFMNYGKTPEEKAVLERLGWAPFRASSDLQLVPIRQLALFKEMQGVKSNKGLNEQDKLAKTTEIQAQLDDLDRLNNALSAMSSVSKAVQ
modifications: selenomethionine in place of methionine
As to B1, the “stoichiometry N” value in series [9] amounted to 2.

B2: EcPhnD H157A (natural protein, E. coli, UniProt P16682 27-338, looked up)
chain: B1 chain with H157A
With B2, the “stoichiometry N” value in [9] was determined as 2.
